# Measurements from ChEMBL document CHEMBL3046161, “Synthesis of potential antitubercular and antimicrobial s-triazine-based scaffolds via Suzuki cross-coupling reaction” (2013).
# How the values were obtained:
# Salmonella typhi [1] = test: Antibacterial activity against Salmonella enterica subsp. enterica serovar Typhi MTCC 733 assessed as growth inhibition at 100 ug/disk after 24 hr by agar disk diffusion method; type: functional; conditions: MTCC 733, 24 h, read-out: IZ
# Klebsiella pneumoniae [2] = test: Antibacterial activity against Klebsiella pneumoniae MTCC 109 assessed as growth inhibition after 24 hr by agar streak dilution method; type: functional; conditions: MTCC 109, 24 h
# Salmonella typhi [3] = test: Antibacterial activity against Salmonella enterica subsp. enterica serovar Typhi MTCC 733 assessed as growth inhibition after 24 hr by agar streak dilution method; type: functional; conditions: MTCC 733, 24 h
# Pseudomonas aeruginosa [4] = test: Antibacterial activity against Pseudomonas aeruginosa MTCC 741 assessed as growth inhibition after 24 hr by agar streak dilution method; type: functional; conditions: MTCC 741, 24 h
# Bacillus cereus [5] = test: Antibacterial activity against Bacillus cereus MTCC 430 assessed as growth inhibition after 24 hr by agar streak dilution method; type: functional; conditions: MTCC 430, 24 h
# Staphylococcus aureus [6] = test: Antibacterial activity against Staphylococcus aureus MTCC 96 assessed as growth inhibition after 24 hr by agar streak dilution method; type: functional; conditions: MTCC 96, 24 h
# Shigella flexneri [7] = test: Antibacterial activity against Shigella flexneri MTCC 1457 assessed as growth inhibition at 100 ug/disk after 24 hr by agar disk diffusion method; type: functional; conditions: MTCC 1457, 24 h, read-out: IZ
# Proteus vulgaris [8] = test: Antibacterial activity against Proteus vulgaris MTCC 1771 assessed as growth inhibition at 100 ug/disk after 24 hr by agar disk diffusion method; type: functional; conditions: MTCC 1771, 24 h, read-out: IZ
# Bacillus cereus [9] = test: Antibacterial activity against Bacillus cereus MTCC 430 assessed as growth inhibition at 100 ug/disk after 24 hr by agar disk diffusion method; type: functional; conditions: MTCC 430, 24 h, read-out: IZ
# Staphylococcus aureus [10] = test: Antibacterial activity against Staphylococcus aureus MTCC 96 assessed as growth inhibition at 100 ug/disk after 24 hr by agar disk diffusion method; conditions: MTCC 96, 24 h, read-out: IZ
# Shigella flexneri [11] = test: Antibacterial activity against Shigella flexneri MTCC 1457 assessed as growth inhibition after 24 hr by agar streak dilution method; type: functional; conditions: MTCC 1457, 24 h
# Proteus vulgaris [12] = test: Antibacterial activity against Proteus vulgaris MTCC 1771 assessed as growth inhibition after 24 hr by agar streak dilution method; type: functional; conditions: MTCC 1771, 24 h
# Klebsiella pneumoniae [13] = test: microbe, parasite or virus in culture; conditions: MTCC 109, 24 h, read-out: IZ
# Description: Antibacterial activity against Klebsiella pneumoniae MTCC 109 assessed as growth inhibition at 100 ug/disk after 24 hr by agar disk diffusion method
# Pseudomonas aeruginosa [14] = test: microbe, parasite or virus in culture; conditions: MTCC 741, 24 h, read-out: IZ
# Description: Antibacterial activity against Pseudomonas aeruginosa MTCC 741 assessed as growth inhibition at 100 ug/disk after 24 hr by agar disk diffusion method
# Escherichia coli = test: microbe, parasite or virus in culture; conditions: MTCC 739, 24 h, read-out: IZ
# Description: Antibacterial activity against Escherichia coli MTCC 739 assessed as growth inhibition at 100 ug/disk after 24 hr by agar disk diffusion method
smiles,measurement,setting,value
O=C(O)c1cn(C2CC2)c2cc(N3CCNCC3)c(F)cc2c1=O [CIPROFLOXACIN],zone of inhibition at 100 µg/disc,Salmonella typhi [1],30 mm
same,MIC,Klebsiella pneumoniae [2],0.78 µg/mL
same,MIC,Salmonella typhi [3],0.39 µg/mL
same,MIC,Pseudomonas aeruginosa [4],0.78 µg/mL
same,MIC,Bacillus cereus [5],0.39 µg/mL
same,MIC,Staphylococcus aureus [6],1.56 µg/mL
same,zone of inhibition at 100 µg/disc,Shigella flexneri [7],32 mm
same,zone of inhibition at 100 µg/disc,Proteus vulgaris [8],31 mm
same,zone of inhibition at 100 µg/disc,Bacillus cereus [9],31 mm
same,zone of inhibition at 100 µg/disc,Staphylococcus aureus [10],30 mm
same,MIC,Shigella flexneri [11],1.56 µg/mL
same,MIC,Proteus vulgaris [12],0.39 µg/mL
same,zone of inhibition at 100 µg/disc,Klebsiella pneumoniae [13],33 mm
same,zone of inhibition at 100 µg/disc,Pseudomonas aeruginosa [14],33 mm
same,zone of inhibition at 100 µg/disc,Escherichia coli,32 mm
